According to patent publication US8232407B2, “Nitrogenous heterocyclic compounds with insecticidal activity, and the preparation and use thereof” (East China University of Science and Technology, priority 2008, dated 2012):

Assays:
Aphis craccivoral = experiment: Insecticidal activities to aphids, immersion method; type: in vivo; conditions: in vivo
Description: (1): Insecticidal Activities to Aphids
Aphis (Aphis craccivoral), which belongs to Homoptera and has a piercing-sucking mouthpart, is a common insect for agricultural plant. Aphis craccivoral was tested by immersion method.
Procedure: exactly weighed various samples were independently added to N,N-dimethylformamide to form 10 g/L stock solutions. The stock solutions were diluted with 0.2 mL/L aqueous Triton X-100 solution to a concentration of 500 ppm. After stably sucking on bean sprout, the wingless adult aphis together with bean sprout were dipped into 500 ppm dilution, taken out after 5 seconds, and the excess dilution was sucked off with bibulous paper. The treated wingless adult aphis was incubated in clean vessel at a constant temperature of 23° C. Each concentration was repeated for 3 times and the control group was treated with 0.2mL/L aqueous Triton X-100 solution. The number of killed aphis was counted after 24 hours and the mortality was to calculated according to the following formula:
(§1) Mortality (%)=(the number of the survival aphis in control group−the number of the survival aphis in the treatment group)/the number of the survival aphis in control group×100%

Nilaparvata lugens = experiment: Insecticidal activities to plant hopper, spraying method; type: in vivo; conditions: in vivo
Description: as §1
(2): Insecticidal Activities to Plant hopper
Plant hopper (Nilaparvata lugens), which belongs to Homoptera and has a piercing-sucking mouthpart, is a common insect for agricultural plant. Nilaparvata lugens was tested by spraying method.
Procedure: the test compound was exactly formulated with acetone to form solutions having concentrations of 500, 250, 100, 50, 25, 12.5, 6.25, 3.13, 1.57 and 0.79 ppm, respectively. Aqueous acetone solution was used as control. Each treatment was repeated for 3 tumblers (3 times). Two ml of solution was sprayed uniformly to each tumbler with a mini manual sprayer. 10 insects were introduced to every basin 6 hours before spraying. Three series of experiments were conducted. The number of killed insects was counted after 24 hours to calculate the mortality according to the above mentioned formula.

SMILES | Aphis craccivoral Mortality (%) 500 ppm (Aphis craccivoral) [%] | Nilaparvata lugens Mortality (%) 500 ppm (Nilaparvata lugens) [%]
CN=C(NCc1ccc(Cl)nc1)C(=Cc1ccc(Br)o1)[N+](=O)[O-] [Compound 155] | 67 | 36
CN=C(C(=Cc1cccs1)[N+](=O)[O-])N(C)Cc1cnc(Cl)s1 [Compound 220] | 80 | 67
CN=C(C(=Cc1ccc(Cl)s1)[N+](=O)[O-])N(C)Cc1ccc(Cl)nc1 [Compound 239] | 58 | 34
CCN=C(C(=Cc1ccco1)[N+](=O)[O-])N(CC)Cc1ccc(Cl)nc1 [Compound 189] | 86 | 100
CCN=C(C(=Cc1ccc(Br)o1)[N+](=O)[O-])N(CC)Cc1ccc(Cl)nc1 [Compound 193] | 89 | 100
CCN(Cc1cnc(Cl)s1)C(=NC)C(=Cc1ccc([N+](=O)[O-])o1)[N+](=O)[O-] [Compound 227] | 100 | 100
CCN(Cc1ccc(Cl)nc1)C(=NC)C(=C(C)c1ccc[nH]1)[N+](=O)[O-] [Compound 204] | 92 | 100
CCN(Cc1ccc(Cl)nc1)C(=NC)C(=Cc1ccoc1)[N+](=O)[O-] [Compound 180] | 100 | 100
CN=C(C(=Cc1ccsc1)[N+](=O)[O-])N(C)Cc1ccc(Cl)nc1 [Compound 237] | 87 | 98
CCN(Cc1ccc(Cl)nc1)C(=NC)C(=Cc1ccc[nH]1)[N+](=O)[O-] [Compound 243] | 96 | 100
CCN(Cc1ccc(Cl)nc1)C(=NC)C(=Cc1ccc([N+](=O)[O-])o1)[N+](=O)[O-] [Compound 181] | 100 | 100
CCN(Cc1ccc(Cl)nc1)C(=NC)C(=C(C)c1ccco1)[N+](=O)[O-] [Compound 195] | 100 | –
CCN=C(C(=Cc1cccs1)[N+](=O)[O-])N(C)Cc1ccc(Cl)nc1 [Compound 175] | 100 | 100
CN=C(NCc1ccc(Cl)nc1)C(=Cc1ccc([N+](=O)[O-])o1)[N+](=O)[O-] [Compound 153] | 56 | 87
CN=C(C(=C(C)c1ccc([N+](=O)[O-])s1)[N+](=O)[O-])N(C)C(C)c1ccc(Cl)nc1 (stereo not shown) [Compound 214] | 98 | 100
CN=C(C(=Cc1ccc([N+](=O)[O-])s1)[N+](=O)[O-])N(C)Cc1ccc(Cl)nc1 [Compound 238] | 91 | 98
CCN=C(C(=Cc1ccc([N+](=O)[O-])o1)[N+](=O)[O-])N(CC)Cc1ccc(Cl)nc1 [Compound 191] | 95 | 100
CCN(Cc1cnc(Cl)s1)C(=NC)C(=Cc1ccc[nH]1)[N+](=O)[O-] [Compound 231] | 37 | 76
CCN(C(=NC)C(=Cc1ccc([N+](=O)[O-])o1)[N+](=O)[O-])C(C)c1ccc(Cl)nc1 (stereo not shown) [Compound 207] | 94 | 100
CCN(Cc1ccc(Cl)nc1)C(=NC)C(=Cc1ccc[nH]1)[N+](=O)[O-] [Compound 188] | 100 | 100
CCN(Cc1ccc(Cl)nc1)C(=NC)C(=Cc1ccco1)[N+](=O)[O-] [Compound 241] | 68 | 76
CN=C(C(=C(C)c1ccc(Cl)s1)[N+](=O)[O-])N(C)C(C)c1ccc(Cl)nc1 (stereo not shown) [Compound 215] | 100 | 100
CN=C(C(=Cc1ccc(Cl)o1)[N+](=O)[O-])N(C)Cc1ccc(Cl)nc1 [Compound 234] | 37 | 44
CN=C(NCc1ccc(Cl)nc1)C(=Cc1ccoc1)[N+](=O)[O-] [Compound 152] | 67 | 64
CCN(Cc1ccc(Cl)nc1)C(=NC)C(=C(C)c1ccc(Cl)s1)[N+](=O)[O-] [Compound 203] | 100 | 100

SMILES | Aphis craccivoral Mortality (%) 500 ppm (Aphis craccivoral) [%] | Nilaparvata lugens Mortality (%) 500 ppm (Nilaparvata lugens) [%]
CCN=C(C(=Cc1ccc([N+](=O)[O-])o1)[N+](=O)[O-])N(C)Cc1ccc(Cl)nc1 [Compound 172] | 96 | 100
CN=C(C(=C(C)c1ccc[nH]1)[N+](=O)[O-])N(C)Cc1ccc(Cl)nc1 [Compound 194] | 98 | 100
CCN(Cc1cnc(Cl)s1)C(=NC)C(=Cc1ccoc1)[N+](=O)[O-] [Compound 226] | 68 | 49
CCN(C(=NC)C(=Cc1ccc[nH]1)[N+](=O)[O-])C(C)c1ccc(Cl)nc1 (stereo not shown) [Compound 211] | 73 | 73
CCN(Cc1cnc(Cl)s1)C(=NC)C(=Cc1ccc(Cl)s1)[N+](=O)[O-] [Compound 230] | 75 | 50
CCN=C(C(=Cc1ccoc1)[N+](=O)[O-])N(CC)Cc1ccc(Cl)nc1 [Compound 190] | 87 | 100
CN=C(C(=Cc1ccc([N+](=O)[O-])s1)[N+](=O)[O-])N(C)Cc1ccc(Cl)nc1 [Compound 168] | 80 | 90
CN=C(C(=Cc1ccsc1)[N+](=O)[O-])N(C)Cc1cnc(Cl)s1 [Compound 221] | 78 | 87
CN=C(C(=Cc1ccc(Cl)s1)[N+](=O)[O-])N(C)Cc1cnc(Cl)s1 [Compound 223] | 65 | 53
CCN(Cc1ccc(Cl)nc1)C(=NC)C(=Cc1ccoc1)[N+](=O)[O-] [Compound 242] | 100 | 100
CN=C(NCc1ccc(Cl)nc1)C(=Cc1ccc(Cl)o1)[N+](=O)[O-] [Compound 154] | 52 | 65
CCN(Cc1ccc(Cl)nc1)C(=NC)C(=Cc1ccc(Cl)o1)[N+](=O)[O-] [Compound 182] | 100 | 100
CCN(Cc1ccc(Cl)nc1)C(=NC)C(=C(C)c1ccc([N+](=O)[O-])s1)[N+](=O)[O-] [Compound 202] | 100 | 100
CN=C(C(=Cc1ccco1)[N+](=O)[O-])N(C)Cc1ccc(Cl)nc1 [Compound 232] | 96 | 56
CN=C(C(=Cc1cccs1)[N+](=O)[O-])N(C)Cc1ccc(Cl)nc1 [Compound 166] | 98 | 100
CN=C(NCc1ccc(Cl)nc1)C(=Cc1ccc(Cl)s1)[N+](=O)[O-] [Compound 159] | 55 | 67
CN=C(C(=Cc1ccoc1)[N+](=O)[O-])N(C)Cc1ccc(Cl)nc1 [Compound 233] | 80 | 86
CCN(Cc1ccc(Cl)nc1)C(=NC)C(=Cc1ccsc1)[N+](=O)[O-] [Compound 185] | 100 | 100
CCN=C(C(=Cc1ccoc1)[N+](=O)[O-])N(C)Cc1ccc(Cl)nc1 [Compound 171] | 93 | 100
CCN(Cc1cnc(Cl)s1)C(=NC)C(=Cc1ccc(Cl)o1)[N+](=O)[O-] [Compound 228] | 100 | 100
CN=C(C(=Cc1ccc[nH]1)[N+](=O)[O-])N(C)Cc1ccc(Cl)nc1 [Compound 240] | 77 | 68
CCN(Cc1ccc(Cl)nc1)C(=NC)C(=C(C)c1ccsc1)[N+](=O)[O-] [Compound 201] | 100 | 100
CCN=C(C(=Cc1ccc([N+](=O)[O-])s1)[N+](=O)[O-])N(C)Cc1ccc(Cl)nc1 [Compound 176] | 86 | 100
CCN(Cc1ccc(Cl)nc1)C(=NC)C(=C(C)c1ccc([N+](=O)[O-])o1)[N+](=O)[O-] [Compound 197] | 98 | 100
